The text below walks through data of patent publication US20240190889A1, “NEW CYCLOPENTA-THIENO-DIAZEPINE DERIVATIVES AS GABA A GAMMA1 POSITIVE ALLOSTERIC MODULATORS” (Hoffmann-La Roche Inc., priority 2021, published 2024).

Read-outs that look alike come from different tables or passages of the source.

For assay [1], the target named is h-GABA-A α2β2γ1 receptor expressed in Xenopus laevis oocytes (Homo sapiens (Human), UniProt P47869+Q8N1C3). Nature of the assay: Two-electrode voltage clamp electrophysiology in Xenopus oocytes expressing GABAA receptors. It counts as cell-based. The note with it: for Efficacy (GABA)%: % modulation of GABA EC20 = 100*(Fold increase-1), compound at 30-fold Ki α2β2γ1; for Fold increase h-GABA-A α2β2γ1 oocyte @ 30-fold Ki: GABA EC20, test compound at approx. 30-fold its Ki α2β2γ1, at least 3 oocytes. An excerpt: Functional Expression of GABAA Receptors:
Xenopus Oocytes Preparation
Xenopus laevis oocytes at maturation stages V-VI were used for the expression of cloned mRNA encoding GABAA receptor subunits. Oocytes ready for RNA micro-injection were bought from Ecocyte, Castrop-Rauxel, Germany and stored in modified Barth's medium (composition in mM: NaCl 88, KCl 1, NaHCO3 2.4, HEPES 10, MgSO4 0.82, CaNO3 0.33, CaCl2 0.33, pH=7.5) at 20 C. until the experiment.
Xenopus Oocytes Microinjection
Oocytes were plated in 96-well plates for microinjection using the Roboinject automated instrument (MultiChannelSystems, Reutlingen, Germany). Approximately 50 nL of an aqueous solution containing the RNA transcripts for the subunits of the desired GABAA receptor subtype was injected into each oocyte. […] Oocytes were kept in modified Barth's medium (composition in mM: NaCl 88, KCl 1, NaHCO3 […], HEPES 10, MgSO4 0.82, CaNO3 0.33, CaCl2 0.33, pH=7.5) at 20° C. until the experiment.
Electrophysiological experiments were performed using the Roboocyte instrument (MultiChannelSystems, Reutlingen, Germany) on days 3 to 5 after the micro-injection of mRNA. During the experiment the oocytes were constantly superfused by a solution containing (in mM) NaCl 90, KCl 1, HEPES 5, MgCl: 1, CaCl, 1 (pH 7.4). Oocytes were impaled by two glass microelectrodes (resistance: 0.5-0.8 MS2) which were filled with a solution containing KCl 1M +K-acetate 1.5 M and voltage-clamped to −80 mV. The recordings were performed at room temperature using the Roboocyte two-electrode voltage clamp system (Multichannelsystem). After an initial equilibration period of 1.5 min GABA was added for 1.5 min at a concentration evoking approximately 20% of a maximal current response (EC20). After another rest interval of 2.5 min GABA was again added evoking a response of similar amplitude and shape. […] Current traces were recorded at a digitization rate of 10 Hz during and shortly before and after the GABA application.
Each compound and concentration was tested on at least 3 oocytes. Different oocytes were used for different compound concentrations.
For the analysis, the digitized current traces of the first and second GABA response were superimposed and, if necessary, rescaled to equal maximal amplitudes. The ratio between the two responses during the time interval of test compound application was calculated point by point. The extremum of the resulting “ratio trace” was taken as the efficacy (“Fold increase”) of the compound expressed as “% modulation of GABA EC” (100* (Fold increase-1)).
(In general: In two-electrode clamp one electrode senses voltage and the other passes current.)

The target in assay [2] is human GABAA α1β3γ2 receptor (Homo sapiens (Human), UniProt P14867+P18507). Kind of assay: Radioligand binding assay, competition for [3H]Flumazenil, γ2-containing GABAA subtypes. The note with it: for γ2/γ1 Selectivity Ratio: Ki α1β3γ2 (nM)/Ki α2β2γ1 (nM); for LogSel: Log[Ki α1β3γ2 (nM)/Ki α2β2γ1 (nM)]. The procedure:
Membrane Preparation and Binding Assay for γ2-containing GABAA Subtypes
The affinity of compounds at GABAA γ2 subunit-containing receptors was measured by competition for [^3H]Flumazenil (81.1 Ci/mmol; Roche) binding to HEK293F cells expressing human (transiently transfected) receptors of composition α1β3γ2.
Harvested pellets from HEK293F cells expressing the different GABAA γ2 receptor subtypes were resuspended in Mannitol Buffer pH 7,2-7,4 and processed as described above for the cells expressing the GABAA γ1 subunit-containing receptors.
Assays were incubated to equilibrium for 1 hour at 4° C, and harvested onto GF/C uni-filters (Packard) by filtration using a Packard harvester and washing with ice-cold wash buffer (50 mM Tris; pH 7.5). After anhydrousing, filter-retained radioactivity was detected by liquid scintillation counting. Ki values were calculated using Excel-Fit (Microsoft) and are the means of two determinations.

Assay [3] has as its target human GABAA α2β2γ1 receptor (Homo sapiens (Human), UniProt P47869+Q8N1C3). Kind of assay: Radioligand binding assay, competition for [3H]RO7239181, γ1-containing GABAA subtypes. The protocol: Membrane Preparation and Binding Assay for γ1-containing GABAA Subtypes
The affinity of compounds at GABAA γ1 subunit-containing receptors was measured by competition for [^3H]RO7239181 (67.3 Ci/mmol: Roche) binding to membranes from HEK293F cells (ThermoFisher R79007) expressing human (transiently transfected) receptors of composition α5β2γ1, α2β2γ1, α1β2γ1.
Harvested pellets from HEK293F cells expressing the different GABAA receptor subtypes were resuspended in Mannitol Buffer pH 7.2-7.4 (Mannitol 0.29 M, Tricthylamine 10 mM. Acetic acid 10 mM. EDTA 1 mM plus protease inhibitors (20 tablets Complete. Roche Diagnostics Cat. No. 05 056 489 001 per liter)), washed two times and then resuspended at 1:10 to 1:15 dilution in the same buffer. Cell disruption was performed by stirring the suspension in a Parr vessel #4637 at 435 psi for 15 minutes, and then the suspensions were centrifuged at 1000×g for 15 minutes at 4° C. (Beckman Avanti J-HC: rotor JS-4.2). The supernatant (S1) was transferred in a 21 Schott flask and the pellet (P1) was resuspended with Mannitol Buffer up to 175 ml. The resuspended pellet was transferred into a 250 ml Corning centrifugal beaker and centrifuged at 1500 ×g for 10 minutes at 4° C. (Beckman Avanti J-HC: rotor JS-4.2). The supernatant (S1) was then transferred in the 21 Schott flask and the pellet was discarded. The supernatants (S1) were centrifuged in 500ml Beckman polypropylene centrifugal beaker at 15 000×g for 30 minutes at 4° C. (Beckman Avanti J-20 XP; rotor JLA-10.500). The pellet (P2) was resuspended with Mannitol Buffer 1:1 and frozen at −80° C. The supernatant (S2) was centrifuged in 100 ml Beckman polypropylene centrifugal tubes at 48000×g for 50 minutes at 4 °C (Beckman Avanti J-20 XP: rotor JA-18). The supernatant (S3) was discarded and the pellet (P3) was resuspended with 1:1 Mannitol Buffer. The P2 and P3 protein concentration was determined with the BIORAD Standard assay method with bovine serum albumin as standard and measured on the NANO-Drop 1000. The membrane suspension was aliquots (500μl per tube) and stored at −80° C. until required.
Membrane homogenates were resuspended and polytronised (Polytron PT1200E Kinematica AG) in Potassium Phosphate 10 mM, KCl 100 mM binding buffer at pH 7.4 to a final assay concentration determined with a previous experiment.
Radioligand binding assays were carried out in a volume of 200 μL (96-well plates) which contained 100 μL of cell membranes. […] Assays were incubated to equilibrium for 1 hour at 4° C. and then, membranes were filtered onto unifilter (96-well white microplate with bonded GF/C filters preincubated 20-50 minutes in 0.3% Polyethylenimine) with a Filtermate 196 harvester (Packard BioScience) and washed 4 times with cold Potassium Phosphate 10 mM pH 7.4. KCl 100 mM binding buffer. After anhydrousing, filter-retained radioactivity was detected by liquid scintillation counting. Ki values were calculated using Excel-Fit (Microsoft) and are the means of two determinations.

Setting [4] is: HEK293F cell membranes, [3H]Flumazenil 1 nM, mean of two determinations, read-out: Ki h-GABAA α1β3γ2.
The mark [5] stands for this setting: read-out: Ki h-GABAA α2β2γ1, membranes from HEK293F cells, [3H]RO7239181 20-30 nM, mean of two determinations.

A word on the Ki: it is a dissociation constant, usually derived from enzyme kinetics or from competition with a known ligand. For the compound `Cc1nnc2n1-c1sc3c(c1C(c1c(F)cccc1Cl)=NC2)C[C@@H](C#N)C3` [Example 1, (13R)-9-(2-chloro-6-fluoro-phenyl)-3-methyl-16-thia-2,4,5,8-tetrazatetracyclo [8.6.0.02,6.011,15]hexadeca-1(10),3,5,8,11(15)-pentaene-13-carbonitrile], in assay [1], the “Efficacy (GABA)%” value was 54% and the “Fold increase h-GABA-A α2β2γ1 oocyte @ 30-fold Ki” value came out at 1.54. Further, the Ki in assay [2] (setting [4]) worked out at 1250 nM. Also, in assay [2], the “γ2/γ1 Selectivity Ratio” value is 49.0 and the LogSel stood at 1.69. Further, the Ki in assay [3] was 25.4 nM. For the same compound, in assay [3] (setting [5]), the Ki is 25.4 nM.
Consider `Cc1nnc2n1-c1sc3c(c1C(c1c(F)cccc1F)=NC2)C[C@@H](C#N)C3` [Example 2, (13R)-9-(2,6-difluorophenyl)-3-methyl-16-thia-2,4,5,8-tetrazatetracyclo [8.6.0.02,6.011,15]hexadeca-1(10),3,5,8,11(15)-pentaene-13-carbonitrile], for which the “Efficacy (GABA)%” value in assay [1] was determined as 35%. Besides, in assay [1], the “Fold increase h-GABA-A α2β2γ1 oocyte @ 30-fold Ki” value is on record as 1.35. The Ki in assay [2] (setting [4]) was 2160 nM; in assay [3], 42.7 nM; in assay [3] (setting [5]), 42.7 nM. Besides, the “γ2/γ1 Selectivity Ratio” value in assay [2] stood at 50.7. For the same compound, the LogSel in assay [2] is reported as 1.71.
`Cc1nnc2n1-c1sc3c(c1C(c1c(F)cccc1F)=NC2)C[C@@H](C(F)F)C3` [Example 3, (13R)-13-(difluoromethyl)-9-(2,6-difluorophenyl)-3-methyl-16-thia-2,4,5,8-tetrazatetracyclo [8.6.0.02,6.011,15]hexadeca-1(10),3,5,8,11(15)-pentaene]: in assay [1], the “Efficacy (GABA)%” value was found to be 54% and the “Fold increase h-GABA-A α2β2γ1 oocyte @ 30-fold Ki” value is recorded as 1.54. Moreover, in assay [2], the Ki was found to be 257 nM, the “γ2/γ1 Selectivity Ratio” value came out at 88.4 and the LogSel is 1.95. The affinity in assay [3], expressed as Ki, was 2.9 nM. Also, the Ki in assay [3] (setting [5]) was determined as 2.9 nM.
On to `Cc1nnc2n1-c1sc3c(c1C(c1c(F)cccc1Cl)=NC2)C[C@@H](C(F)F)C3` [Example 4, (13R)-9-(2-chloro-6-fluoro-phenyl)-13-(difluoromethyl)-3-methyl-16-thia-2,4,5,8-tetrazatetracyclo [8.6.0.02,6.011,15]hexadeca-1(10),3,5,8,11(15)-pentaene], for which, in assay [1], the “Efficacy (GABA)%” value is reported as 51% and the “Fold increase h-GABA-A α2β2γ1 oocyte @ 30-fold Ki” value is recorded as 1.51. For the same compound, in assay [2], affinity was put at a Ki of 343 nM, the “γ2/γ1 Selectivity Ratio” value is recorded as 74.8 and the LogSel was found to be 1.87. In assay [3], this compound showed a Ki of 4.6 nM. Moreover, the Ki in assay [3] (setting [5]) is 4.6 nM.
As for `Cc1nnc2n1-c1sc3c(c1C(c1c(F)cccc1F)=N[C@H]2C)C[C@@H](C(F)F)C3` [Example 5, (7S,13R)-13-(difluoromethyl)-9-(2,6-difluorophenyl)-3,7-dimethyl-16-thia-2,4,5,8-tetrazatetracyclo [8.6.0.02,6.011,15]hexadeca-1(10),3,5,8,11(15)-pentaene], in assay [1], the “Efficacy (GABA)%” value amounted to 41% and the “Fold increase h-GABA-A α2β2γ1 oocyte @ 30-fold Ki” value came out at 1.41. In assay [2], the Ki was 228 nM, the “γ2/γ1 Selectivity Ratio” value is given as 66.5 and the LogSel came out at 1.82. Also, in assay [3], the Ki came to 3.4 nM. Moreover, in assay [3] (setting [5]), the Ki was 3.4 nM.
Consider `Fc1cccc(Cl)c1C1=NCc2nnc(C3CC3)n2-c2sc3c(c21)C[C@@H](C(F)F)C3` [Example 6, (13R)-9-(2-chloro-6-fluoro-phenyl)-3-cyclopropyl-13-(difluoromethyl)-16-thia-2,4,5,8-tetrazatetracyclo [8.6.0.02,6.011,15]hexadeca-1(10),3,5,8,11(15)-pentaene], for which, in assay [1], the “Efficacy (GABA)%” value was determined as 85% and the “Fold increase h-GABA-A α2β2γ1 oocyte @ 30-fold Ki” value was determined as 1.85. Besides, in assay [2], the Ki turned out to be 647 nM, the “γ2/γ1 Selectivity Ratio” value worked out at 97.7 and the LogSel amounted to 1.99. This compound showed a Ki in assay [3] of 6.6 nM. In addition, the Ki in assay [3] (setting [5]) was 6.6 nM.
